Source: patent US8673969B2, “Substituted 4-β-acrylamidopodophyllotoxin congeners as antitumour antibiotics and the process for preparation thereof” (Council of Scientific & Industrial Research, priority 2010, dated 2014)
Like-named read-outs stand apart in the source and are kept apart here.

Columns and labels:
DWD = test: SRB assay, oral cancer cell line DWD; format: cell-based; conditions: Homo sapiens, read-out: In vitro anticancer activity GI50, Oral DWD
Procedure: (§1) Single cell suspension of the tumour cells grown in tissue culture were made, cells counted and cell count adjusted to 1×10^5 to 5×10^5 cells/ml. Ninety six (96) well plates were seeded with this cell suspension, each well receiving 100 μl of it. The plate was then be incubated at 37° C. temperature in CO2 incubator for 24 hours. Drugs were added at concentrations after 24-hour incubation followed by further incubation for 48 hours. Experiment was terminated by gently layering the cells in the wells with 30% TCA and plates were kept in refrigerator for 1 hour following which they were washed thoroughly with tap water, dried attained with 0.4% SRB in 1% acetic aid and finally, the bound SRB eluted with 10 mM tris. Absorbance was read at 540 nm, in the microtitre-plate reader. Optical density of drug-treated cells was compared with that of control cells and cell inhibition was calculated as percent values. Each compound was tested at 10, 20, 40 and 80 μg/ml in triplicate on human malignant cell lines.

MCF7 = test: SRB assay, breast cancer cell line MCF7; format: cell-based; conditions: Homo sapiens, read-out: In vitro anticancer activity GI50, Breast MCF7
Procedure: as §1

A-549 = test: SRB assay, lung cancer cell line A-549; format: cell-based; conditions: Homo sapiens, read-out: In vitro anticancer activity GI50, Lung A-549
Procedure: as §1

Gurav = test: SRB assay, oral cancer cell line Gurav; format: cell-based; conditions: Homo sapiens, read-out: In vitro anticancer activity GI50, Oral Gurav
Procedure: as §1

Hop62 = test: SRB assay, lung cancer cell line Hop62; format: cell-based; conditions: Homo sapiens, read-out: In vitro anticancer activity GI50, Lung Hop62
Procedure: as §1

Zr-75-1 = test: SRB assay, breast cancer cell line Zr-75-1; format: cell-based; conditions: Homo sapiens, read-out: In vitro anticancer activity GI50, Breast Zr-75-1
Procedure: as §1

A-2780 = test: SRB assay, ovarian cancer cell line A-2780; format: cell-based; conditions: Homo sapiens, read-out: In vitro anticancer activity GI50, Ovarian A-2780
Procedure: as §1

KB = test: SRB assay, oral cancer cell line KB; format: cell-based; conditions: Homo sapiens, read-out: In vitro anticancer activity GI50, Oral KB
Procedure: as §1

Colo205 = test: SRB assay, colon cancer cell line Colo205; format: cell-based; conditions: Homo sapiens, read-out: In vitro anticancer activity GI50, Colon Colo205
Procedure: as §1

[1] = SRB assay, 48 hours drug exposure

GI50 (DWD; [1]) | GI50 (MCF7; MCF7, SRB assay, 48 hours drug exposure) | GI50 (A-549; A549, SRB assay, 48 hours drug exposure) | GI50 (Colo205; COLO 205, SRB assay, 48 hours drug exposure) | GI50 (Gurav; [1]) | GI50 (Hop62; HOP-62, SRB assay, 48 hours drug exposure) | GI50 (Zr-75-1; ZR-75-1, SRB assay, 48 hours drug exposure) | GI50 (A-2780; A2780, SRB assay, 48 hours drug exposure) | GI50 (KB; [1]) | SMILES | GI50 (DWD; 48 h) | GI50 (MCF7; MCF7, 48 h) | GI50 (A-549; A549, 48 h) | melting point | GI50 (Gurav; 48 h) | GI50 (Hop62; HOP-62, 48 h) | GI50 (Zr-75-1; ZR-75-1, 48 h) | GI50 (A-2780; A2780, 48 h) | GI50 (KB; 48 h) | GI50 (Colo205; COLO 205, 48 h)
– | – | – | – | – | – | – | – | – | COc1ccccc1/C(=C\c1ccccc1[N+](=O)[O-])C(=O)N[C@@H]1c2cc3c(cc2[C@@H](c2cc(OC)c(OC)c(OC)c2)[C@H]2C(=O)OC[C@@H]21)OCO3 [Compound 3m, 4β-(E)-2-(2-methoxyphenyl)-3-(2-nitrophenyl)acrylamidopodophyllotoxin] | 2300 nM | 2800 nM | < 100 nM | 187 to 190 °C | 2200 nM | 2100 nM | 2200 nM | 2200 nM | 2500 nM | –
– | – | – | – | – | – | – | – | – | COc1ccc(/C=C(/C(=O)N[C@@H]2c3cc4c(cc3[C@@H](c3cc(OC)c(OC)c(OC)c3)[C@H]3C(=O)OC[C@@H]32)OCO4)c2cc(OC)c(OC)c(OC)c2)cc1[N+](=O)[O-] [Compound 3h, 4β-(E)-3-(4-methoxy-3-nitrophenyl)-2-(3,4,5-trimethoxyphenyl)acrylamidopodophyllotoxin] | 2900 nM | – | – | 140 to 143 °C | 2600 nM | 2300 nM | 2200 nM | 2500 nM | – | 2700 nM
– | – | – | – | – | – | – | – | – | COc1cc(/C(=C\c2ccc(O)c([N+](=O)[O-])c2)C(=O)N[C@@H]2c3cc4c(cc3[C@@H](c3cc(OC)c(OC)c(OC)c3)[C@H]3C(=O)OC[C@@H]32)OCO4)cc(OC)c1OC [Compound 3g, 4β-(E)-3-(4-hydroxy-3-nitrophenyl)-2-(3,4,5-trimethoxyphenyl)acrylamidopodophyllotoxin] | < 100 nM | 2700 nM | – | – | 190 nM | 190 nM | 180 nM | 2200 nM | 2200 nM | 2000 nM
– | – | – | – | – | – | – | – | – | COc1ccc(/C=C(/C(=O)N[C@@H]2c3cc4c(cc3[C@@H](c3cc(OC)c(OC)c(OC)c3)[C@H]3C(=O)OC[C@@H]32)OCO4)c2cc(OC)c(OC)c(OC)c2)cc1 [Compound 3n, 4β-(E)-3-(4-methoxyphenyl)-2-(3,4,5-trimethoxyphenyl)acrylamidopodophyllotoxin] | 2300 nM | 2900 nM | – | 128 to 130 °C | 2200 nM | – | 2900 nM | 2500 nM | – | 170 nM
– | – | – | – | – | – | – | – | – | COc1cc(/C(=C\c2ccccc2[N+](=O)[O-])C(=O)N[C@@H]2c3cc4c(cc3[C@@H](c3cc(OC)c(OC)c(OC)c3)[C@H]3C(=O)OC[C@@H]32)OCO4)cc(OC)c1OC [Compound 3k, 4β-(E)-3-(2-nitrophenyl)-2-(3,4,5-trimethoxyphenyl)acrylamidopodophyllotoxin] | – | – | 2500 nM | 197 to 200 °C | – | 2700 nM | 2500 nM | 2300 nM | 2700 nM | –
100 nM | 130 nM | < 100 nM | < 100 nM | < 100 nM | 150 nM | 110 nM | < 100 nM | 130 nM | COc1cccc2c1C(=O)c1c(O)c3c(c(O)c1C2=O)C[C@@](O)(C(=O)CO)C[C@@H]3O[C@H]1C[C@H](N)[C@H](O)[C@H](C)O1 [ADR, adriamycin, reference compound] | – | – | – | – | – | – | – | – | – | –
– | – | – | – | – | – | – | – | – | COc1cc(/C=C(/C(=O)N[C@@H]2c3cc4c(cc3[C@@H](c3cc(OC)c(OC)c(OC)c3)[C@H]3C(=O)OC[C@@H]32)OCO4)c2cc(OC)c(OC)c(OC)c2)ccc1O [Compound 3a, 4β-(E)-3-(4-hydroxy-3-methoxyphenyl)-2-(3,4,5-trimethoxyphenyl)acrylamidopodophyllotoxin] | – | – | 2400 nM | 134 to 137 °C | – | 2500 nM | – | – | – | –
– | – | – | – | – | – | – | – | – | COc1ccccc1/C(=C\c1ccc([N+](=O)[O-])cc1)C(=O)N[C@@H]1c2cc3c(cc2[C@@H](c2cc(OC)c(OC)c(OC)c2)[C@H]2C(=O)OC[C@@H]21)OCO3 [Compound 3l, 4β-(E)-2-(2-methoxyphenyl)-3-(4-nitrophenyl)acrylamidopodophyllotoxin] | 2300 nM | 2700 nM | < 100 nM | 181 to 183 °C | 2100 nM | 2000 nM | 2100 nM | 2300 nM | 2400 nM | –
– | – | – | – | – | – | – | – | – | COc1cc(/C=C(/C(=O)N[C@@H]2c3cc4c(cc3[C@@H](c3cc(OC)c(OC)c(OC)c3)[C@H]3C(=O)OC[C@@H]32)OCO4)c2cc(OC)c(OC)c(OC)c2)ccc1F [Compound 3c, 4β-(E)-3-(4-fluoro-3-methoxyphenyl)-2-(3,4,5-trimethoxyphenyl)acrylamidopodophyllotoxin] | – | – | – | 144 to 146 °C | 2400 nM | 2500 nM | 2200 nM | – | – | –
– | – | – | – | – | – | – | – | – | COc1cc(/C(=C\c2ccc(O)cc2)C(=O)N[C@@H]2c3cc4c(cc3[C@@H](c3cc(OC)c(OC)c(OC)c3)[C@H]3C(=O)OC[C@@H]32)OCO4)cc(OC)c1OC [Compound 3p, 4β-(E)-3-(4-hydroxyphenyl)-2-(3,4,5-trimethoxyphenyl)acrylamidopodophyllotoxin] | 2700 nM | – | 2300 nM | 137 to 140 °C | 2700 nM | 2600 nM | 2700 nM | – | 2600 nM | –
– | – | – | – | – | – | – | – | – | COc1ccc(F)c(/C=C(/C(=O)N[C@@H]2c3cc4c(cc3[C@@H](c3cc(OC)c(OC)c(OC)c3)[C@H]3C(=O)OC[C@@H]32)OCO4)c2cc(OC)c(OC)c(OC)c2)c1 [Compound 3e, 4β-(E)-3-(2-fluoro-5-methoxyphenyl)-2-(3,4,5-trimethoxyphenyl)acrylamidopodophyllotoxin] | – | – | – | 123 to 126 °C | 2500 nM | – | 2700 nM | – | – | –
– | – | – | – | – | – | – | – | – | COc1ccc(/C=C(/C(=O)N[C@@H]2c3cc4c(cc3[C@@H](c3cc(OC)c(OC)c(OC)c3)[C@H]3C(=O)OC[C@@H]32)OCO4)c2cc(OC)c(OC)c(OC)c2)cc1O [Compound 3b, 4β-(E)-3-(3-hydroxy-4-methoxyphenyl)-2-(3,4,5-trimethoxyphenyl)acrylamido podophyllotoxin] | – | – | 2900 nM | 145 to 147 °C | – | 2900 nM | – | – | – | –
– | – | – | – | – | – | – | – | – | COc1cc(/C(=C\c2ccc([N+](=O)[O-])cc2)C(=O)N[C@@H]2c3cc4c(cc3[C@@H](c3cc(OC)c(OC)c(OC)c3)[C@H]3C(=O)OC[C@@H]32)OCO4)cc(OC)c1OC [Compound 3i, 4β-(E)-3-(4-nitrophenyl)-2-(3,4,5-trimethoxyphenyl)acrylamidopodophyllotoxin] | 2400 nM | – | – | 187 to 190 °C | 2100 nM | 2700 nM | 2200 nM | 2600 nM | – | 2100 nM
– | – | – | – | – | – | – | – | – | COc1cccc(/C=C(/C(=O)N[C@@H]2c3cc4c(cc3[C@@H](c3cc(OC)c(OC)c(OC)c3)[C@H]3C(=O)OC[C@@H]32)OCO4)c2cc(OC)c(OC)c(OC)c2)c1 [Compound 3o, 4β-(E)-3-(3-methoxyphenyl)-2-(3,4,5-trimethoxyphenyl)acrylamidopodophyllotoxin] | 2200 nM | 2700 nM | < 100 nM | 187 to 190 °C | 2100 nM | 180 nM | 180 nM | < 100 nM | 2100 nM | –
– | – | – | – | – | – | – | – | – | COc1ccc(/C=C(/C(=O)N[C@@H]2c3cc4c(cc3[C@@H](c3cc(OC)c(OC)c(OC)c3)[C@H]3C(=O)OC[C@@H]32)OCO4)c2cc(OC)c(OC)c(OC)c2)c(F)c1 [Compound 3f, 4β-(E)-3-(2-fluoro-4-methoxyphenyl)-2-(3,4,5-trimethoxyphenyl)acrylamidopodophyllotoxin] | 190 nM | 2400 nM | 2100 nM | 123 to 125 °C | 180 nM | 170 nM | 2500 nM | 2700 nM | 2600 nM | –
– | – | – | – | – | – | – | – | – | COc1cc(/C(=C\c2cccc([N+](=O)[O-])c2)C(=O)N[C@@H]2c3cc4c(cc3[C@@H](c3cc(OC)c(OC)c(OC)c3)[C@H]3C(=O)OC[C@@H]32)OCO4)cc(OC)c1OC [Compound 3j, 4β-(E)-3-(3-nitrophenyl)-2-(3,4,5-trimethoxyphenyl)acrylamido podophyllotoxin] | < 100 nM | 2700 nM | 2400 nM | 181 to 184 °C | 2100 nM | 170 nM | – | 2500 nM | – | –
